Experimental data reported in patent publication US20110046381A1, “NOVEL 4-{3-[4-(3-{4-[AMINO (BUTOXYCARBONYLIMINO) METHYL] PHENOXY} PROPYL)-1-PIPERIDINYL] PROPOXY]-N'-(BUTOXYCARBONYL) BENZAMIDINE CRYSTALS” (Toyama Chemical Co., Ltd., priority 2007, published 2011).

What was measured:
[1] = Tapped density (Test Example 1); assay type: physicochemical; settings: sieved 18 mesh, tapped 180 times, W/V1
Procedure: The test materials passed through a sieve (18 mesh) were filled into a measuring cylinder and the weight W(g) of the filled test materials was measured. Next, the measuring cylinder containing the test materials was mechanically tapped 180 times by a powder characteristic measuring device (a powder tester PT-E, Hosokawa Micron Corporation). After tapping, the volume V1 (mL) of the tapped test materials was measured. By the following formula, the tapped density (g/mL) was calculated. Tapped density (g/mL)=W/V1

[2] = Surface potential after corona discharge (Test Example 2); assay type: physicochemical; settings: 25° C., 50% RH; corona discharge −4 kV for 2 minutes
Procedure: The following test was conducted in a thermo-hygrostat (25° C., 50% RH). The test materials were set in a sample plate (SUS304, the surface was ground by a buff400, the volume: about 6 mL, the depth: 3 mm, cylindrical, the upper aspect was opened), and was charged by corona discharge (the corona voltage: −4 kV) from an impressed voltage device for 2 minutes (the distance between the impressed voltage device and the sample plate: 30 mm). After charging, the surface potential of the test materials was measured (the distance between the sensor and the sample: 5 mm). Thermo-hygrostat: KCL-2000, EYELA CORPORATION Surface potential measurement device: SK-200, KEYENCE CORPORATION Impressed voltage device: SJ-G036, KEYENCE CORPORATION Data logger: AD-DIO Card Bus, Interface Corporation

[3] = Sticking test, scraper pressure of tablets (Test Example 3); assay type: physicochemical; settings: tablets containing 200 mg, diameter 8.5 mm, loading pressure 10 kN
Procedure: Tablets (flat-shaped, the diameter 8.5 mm) containing 200 mg of the test materials were prepared by using a tableting process analyzer (Tab Flex TAB-10, OKADA SEIKO CO., LTD.) (the loading pressure: 10 kN). Next, the scraper pressure was measured when the tablets were pushed out by a scraper.

[4] = Adhesion test to a metal cup (Test Example 4); assay type: physicochemical; settings: 5 g test material in SUS304 metal cup, weight adhering after turning over the cup
Procedure: 5 g of the test materials passed through a sieve (18 mesh) are filled in a metal cup (SUS304, the internal diameter: 65 mm, the volume: about 200 mL), and then the test materials were removed by turning over the cup. The weight of the test materials adhering on the surface of the cup was measured.

[5] = Compression moldability test, tablet hardness (Test Example 5); assay type: physicochemical; settings: 200 mg tablets
Procedure: Tablets (flat-shaped, the diameter: 8.5 mm) containing 200 mg of the test materials were prepared by using a tableting process analyzer (Tab Flex TAB-10, OKADA SEIKO CO., LTD.) (The loading pressure: 5 and 10 kN). Next, the breaking strength of the tablets was measured by a tablet hardness tester (PC-30, OKADA SEIKO CO., LTD.).

[6] = system: Candida albicans TIMM1623; assay: Mouse Candida infection model test, oral administration (Test Example 6); assay type: in vivo; settings: immunosuppressed mice, i.v. infection about 3×10^4 CFU/mouse; 1 mg/kg orally once daily for 4 days; observed for 14 days; 5 mice/group
Procedure: Candida albicans TIMM1623, which was obtained from overnight cultures grown on Sabouraud dextrose agar (SDA) plates at 35° C., was suspended in sterile physiological saline, then diluted to prepare a suspension of inoculum organism.
Transient immunosuppression in mice (four-week-old, 5 mice/group) was induced by intraperitoneal treatment with 200 mg/kg cyclophosphamide 4 days before the infection and with 100 mg/kg cyclophosphamide 1 day after the infection. Infection was induced by the intravenous inoculation of 0.2 mL of the cell suspension of Candida albicans TIMM1623 (about 3×10^4 CFU/mouse) via the lateral tail vein. The test compound was dissolved in 0.1 mol/L hydrochloric acid, diluted by sterilized water and orally administered at 1 mg/kg of mouse body weight. The therapy was started at 2 hours after infection and carried out once daily for 4 days. The equivalent amount of sterilized physiological saline was administered to the group to which no test compound was administered. The survival number of mice was observed and recorded for 14 days.

In the case of `CCCCOC(=O)N=C(N)c1ccc(OCCCC2CCN(CCCOc3ccc(C(N)=NC(=O)OCCCC)cc3)CC2)cc1` [Type III crystal, 4-{3-[4-(3-{4-[amino(butoxycarbonylimino)methyl]phenoxy}propyl)-1-piperidinyl]propoxy}-N′-(butoxycarbonyl)benzamidine], the Tapped density [1] is reported as 0.45 g/mL, the Surface potential [2] is reported as −1.9 kV and the Scraper pressure [3] is reported as 1.9 kN. The Adhering amount [4] was 22 mg, the Hardness ([5]; Loading pressure 5 kN) was 66 N and the Hardness ([5]; Loading pressure 10 kN) was 95 N. For the same compound, the mice survived [6] was 80%.

`CCCCOC(=O)N=C(N)c1ccc(OCCCC2CCN(CCCOc3ccc(C(N)=NC(=O)OCCCC)cc3)CC2)cc1` [Type IV crystal, 4-{3-[4-(3-{4-[amino(butoxycarbonylimino)methyl]phenoxy}propyl)-1-piperidinyl]propoxy}-N′-(butoxycarbonyl)benzamidine] showed a Tapped density [1] of 0.47 g/mL, a Surface potential [2] of −1.3 kV and a Scraper pressure [3] of 2.9 kN. It also gave an Adhering amount [4] of 40 mg and a mice survived [6] of 80%.

In the case of `CCCCOC(=O)N=C(N)c1ccc(OCCCC2CCN(CCCOc3ccc(C(N)=NC(=O)OCCCC)cc3)CC2)cc1` [Type I crystal, 4-{3-[4-(3-{4-[amino(butoxycarbonylimino)methyl]phenoxy}propyl)-1-piperidinyl]propoxy}-N′-(butoxycarbonyl)benzamidine], the Tapped density [1] is reported as 0.22 g/mL, the Surface potential [2] is reported as −2.3 kV and the Scraper pressure [3] is reported as 7.2 kN. For the same compound, the Adhering amount [4] was 70 mg, the Hardness ([5]; Loading pressure 5 kN) was 56 N and the Hardness ([5]; Loading pressure 10 kN) was 57 N. The mice survived [6] was 80%.

`CCCCOC(=O)N=C(N)c1ccc(OCCCC2CCN(CCCOc3ccc(C(N)=NC(=O)OCCCC)cc3)CC2)cc1` [Type II crystal, 4-{3-[4-(3-{4-[amino(butoxycarbonylimino)methyl]phenoxy}propyl)-1-piperidinyl]propoxy}-N′-(butoxycarbonyl)benzamidine] gave a Tapped density [1] of 0.40 g/mL, a Scraper pressure [3] of 2.9 kN and an Adhering amount [4] of 17 mg. The Hardness ([5]; Loading pressure 5 kN) was 63 N, the Hardness ([5]; Loading pressure 10 kN) was 94 N and the mice survived [6] was 80%.
